Measurements: patent US20260232666A1, “COMPOSITIONS AND METHODS FOR INHIBITION OF RAS” (TheRas, Inc., priority 2023, published 2026)

Target: T1, GTP-loaded KRAS4b (amino acids 1-169) G12C/C118S protein (Homo sapiens, UniProt P01116, C118S/G12C)
T1 construct: KRAS4b (amino acids 1-169) G12C/C118S protein; made in house
Experiment: Covalent cysteine 12 modification by MALDI-TOF MS, GTP-loaded KRAS G12C
Type: binding
Conditions: 15 minutes reaction time point
Procedure, shortened: (§1)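 1 μM protein + cpd (1:2.5), HEPES 20 mM/NaCl 150 mM/MgCl2 1 mM pH 7.3, RT, dark, 15 min. Linear MALDI-TOF, sinapinic acid matrix. % mod = modified/(modified + unmodified) peak height.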

Structure (SMILES) | GTP-KRAS G12C percent of modification
C=CC(=O)N1CC[C@@H](N(C)c2nc(OC[C@@]34CCCN3C[C@H](F)C4)nc3cc(-c4ccc(F)c5sc(N)c(C#N)c45)c(F)cc23)[C@@H]1C [Compound 31] | C (10%≤percent of modification <50%)
C=CC(=O)N1CC[C@@H](N(C)c2nc(OC[C@@H]3C[C@@H](OC)CN3C)nc3c(F)c(-c4ccc(F)c5sc(N)c(C#N)c45)c(C(F)(F)F)cc23)[C@@H]1C [Compound 33] | B (50≤percent of modification <70%)
C=CC(=O)N1C2CCC1CN(c1nc(OC[C@@]34CCCN3C[C@H](F)C4)nc3c(F)c(-c4ccc(F)c5sc(N)c(C#N)c45)c(C(F)(F)F)cc13)C2 [Compound 34] | D (percent of modification <10%)
C=CC(=O)N1C2CC1CN(c1nc(OC[C@@]34CCCN3C[C@H](F)C4)nc3c(F)c(-c4ccc(F)c5sc(N)c(C#N)c45)c(C(F)(F)F)cc13)C2 [Compound 35] | C (10%≤percent of modification <50%)
C=CC(=O)N1C[C@H]2CC[C@@H]1CN2c1nc(OC[C@@]23CCCN2C[C@H](F)C3)nc2c(F)c(-c3ccc(F)c4sc(N)c(C#N)c34)c(C(F)(F)F)cc12 [Compound 36] | D (percent of modification <10%)
C=CC(=O)N1CC[C@@H](N(C)c2nc(OC[C@@H]3C[C@@H](OC)CN3CC)nc3c(F)c(-c4ccc(F)c5sc(N)c(C#N)c45)c(C(F)(F)F)cc23)[C@@H]1C [Compound 101] | B (50≤percent of modification <70%)
C=CC(=O)N1CC[C@@H](N(C)c2nc(OC[C@@H]3C[C@@H](OC)CN3CC)nc3c(F)c(-c4ccc(F)c5sc(N)c(C#N)c45)c(C(F)(F)F)cc23)[C@H]1C [Compound 104] | A (percent of modification ≥70%)
C=CC(=O)N1CC[C@@H](N(C)c2nc(OC[C@@H]3C[C@@H](F)CN3CC)nc3c(F)c(-c4ccc(F)c5sc(N)c(C#N)c45)c(Cl)cc23)[C@@H]1C [Compound 105] | C (10%≤percent of modification <50%)
C=CC(=O)N1CCN(c2nc(OC[C@@]34CCCN3C[C@H](F)C4)nc3c(F)c(-c4ccc(F)c5sc(N)c(C#N)c45)c(C(F)(F)F)cc23)C2CC21 (stereo partly drawn) [Compound 106] | C (10%≤percent of modification <50%)
C=CC(=O)N1CC[C@@H](N(C)c2nc(OC[C@@H]3C[C@@H](F)CN3CC)nc3c(F)c(-c4ccc(F)c5sc(N)c(C#N)c45)c(C(F)(F)F)cc23)[C@H]1C [Compound 107] | A (percent of modification ≥70%)
C=CC(=O)N1C[C@H](N(C)c2nc(OC[C@@]34CCCN3C[C@H](F)C4)nc3c(F)c(-c4ccc(F)c5sc(N)c(C#N)c45)c(C(F)(F)F)cc23)C[C@@H]1C [Compound 108] | B (50≤percent of modification <70%)
C=CC(=O)N1C[C@H](N(C)c2nc(OC[C@@]34CCCN3C[C@H](F)C4)nc3cc(-c4ccc(F)c5sc(N)c(C#N)c45)c(F)cc23)C[C@@H]1C [Compound 109] | C (10%≤percent of modification <50%)
C=CC(=O)N1CC[C@@H](N(C)c2nc(OC[C@@]34CCCN3C[C@H](F)C4)nc3cc(-c4nc(N)cc(C)c4C(F)(F)F)c(F)cc23)[C@H]1C [Compound 110] | B (50≤percent of modification <70%)

Target: T2, GDP-loaded KRAS4b (amino acids 1-169) G12C/C118S protein (Homo sapiens, UniProt P01116, C118S/G12C)
T2 construct: KRAS4b (amino acids 1-169) G12C/C118S protein; made in house
Experiment: Covalent cysteine 12 modification by MALDI-TOF MS, GDP-loaded KRAS G12C
Type: binding
Conditions: 15 minutes reaction time point
Procedure, shortened: as §1

Structure (SMILES) | GDP-KRAS G12C percent of modification
C=CC(=O)N1CC[C@@H](N(C)c2nc(OC[C@@]34CCCN3C[C@H](F)C4)nc3cc(-c4ccc(F)c5sc(N)c(C#N)c45)c(F)cc23)[C@@H]1C [Compound 31] | A (percent of modification ≥70%)
C=CC(=O)N1CC[C@@H](N(C)c2nc(OC[C@@H]3C[C@@H](OC)CN3C)nc3c(F)c(-c4ccc(F)c5sc(N)c(C#N)c45)c(C(F)(F)F)cc23)[C@@H]1C [Compound 33] | B (50≤percent of modification <70%)
C=CC(=O)N1C2CCC1CN(c1nc(OC[C@@]34CCCN3C[C@H](F)C4)nc3c(F)c(-c4ccc(F)c5sc(N)c(C#N)c45)c(C(F)(F)F)cc13)C2 [Compound 34] | B (50≤percent of modification <70%)
C=CC(=O)N1C2CC1CN(c1nc(OC[C@@]34CCCN3C[C@H](F)C4)nc3c(F)c(-c4ccc(F)c5sc(N)c(C#N)c45)c(C(F)(F)F)cc13)C2 [Compound 35] | A (percent of modification ≥70%)
C=CC(=O)N1C[C@H]2CC[C@@H]1CN2c1nc(OC[C@@]23CCCN2C[C@H](F)C3)nc2c(F)c(-c3ccc(F)c4sc(N)c(C#N)c34)c(C(F)(F)F)cc12 [Compound 36] | D (percent of modification <10%)
C=CC(=O)N1CC[C@@H](N(C)c2nc(OC[C@@H]3C[C@@H](OC)CN3CC)nc3c(F)c(-c4ccc(F)c5sc(N)c(C#N)c45)c(C(F)(F)F)cc23)[C@@H]1C [Compound 101] | A (percent of modification ≥70%)
C=CC(=O)N1CC[C@@H](N(C)c2nc(OC[C@@H]3C[C@@H](OC)CN3CC)nc3c(F)c(-c4ccc(F)c5sc(N)c(C#N)c45)c(C(F)(F)F)cc23)[C@H]1C [Compound 104] | A (percent of modification ≥70%)
C=CC(=O)N1CC[C@@H](N(C)c2nc(OC[C@@H]3C[C@@H](F)CN3CC)nc3c(F)c(-c4ccc(F)c5sc(N)c(C#N)c45)c(Cl)cc23)[C@@H]1C [Compound 105] | B (50≤percent of modification <70%)
C=CC(=O)N1CCN(c2nc(OC[C@@]34CCCN3C[C@H](F)C4)nc3c(F)c(-c4ccc(F)c5sc(N)c(C#N)c45)c(C(F)(F)F)cc23)C2CC21 (stereo partly drawn) [Compound 106] | A (percent of modification ≥70%)
C=CC(=O)N1CC[C@@H](N(C)c2nc(OC[C@@H]3C[C@@H](F)CN3CC)nc3c(F)c(-c4ccc(F)c5sc(N)c(C#N)c45)c(C(F)(F)F)cc23)[C@H]1C [Compound 107] | A (percent of modification ≥70%)
C=CC(=O)N1C[C@H](N(C)c2nc(OC[C@@]34CCCN3C[C@H](F)C4)nc3c(F)c(-c4ccc(F)c5sc(N)c(C#N)c45)c(C(F)(F)F)cc23)C[C@@H]1C [Compound 108] | B (50≤percent of modification <70%)
C=CC(=O)N1C[C@H](N(C)c2nc(OC[C@@]34CCCN3C[C@H](F)C4)nc3cc(-c4ccc(F)c5sc(N)c(C#N)c45)c(F)cc23)C[C@@H]1C [Compound 109] | A (percent of modification ≥70%)
C=CC(=O)N1CC[C@@H](N(C)c2nc(OC[C@@]34CCCN3C[C@H](F)C4)nc3cc(-c4nc(N)cc(C)c4C(F)(F)F)c(F)cc23)[C@H]1C [Compound 110] | A (percent of modification ≥70%)

Target: T3, Avi-KRAS G12C (1-169) GppNHp/RAF1 RBD-3×FLAG (52-151) (Homo sapiens, UniProt P01116, G12C)
T3 construct: Avi-KRAS G12C (1-169) GppNHp; Avi (N)
Experiment: Raf1 RBD-KRAS G12C-GppNHp disruption assay (protein:protein interaction HTRF)
Type: biochemical
Conditions: not given
Procedure, shortened: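 HTRF measuring RAF1 RBD binding to GppNHp-loaded KRAS G12C (50 nM) in Tris pH 7.5, 100 mM NaCl, 5 mM MgCl2, 10% DMSO. Compound, KRAS, RBD and detection reagents each added sequentially with 1 h room-temperature incubations; 10-point titration; excitation 320 nm, emission 615 nm; activity as % of DMSO; IC50 derived.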

Structure (SMILES) | IC50
C=CC(=O)N1CC[C@@H](N(C)c2nc(OC[C@@]34CCCN3C[C@H](F)C4)nc3cc(-c4ccc(F)c5sc(N)c(C#N)c45)c(F)cc23)[C@@H]1C [Compound 31] | < 0.5 µM
C=CC(=O)N1CC[C@@H](N(C)c2nc(OC[C@@H]3C[C@@H](OC)CN3C)nc3c(F)c(-c4ccc(F)c5sc(N)c(C#N)c45)c(C(F)(F)F)cc23)[C@@H]1C [Compound 33] | < 0.5 µM
C=CC(=O)N1C2CCC1CN(c1nc(OC[C@@]34CCCN3C[C@H](F)C4)nc3c(F)c(-c4ccc(F)c5sc(N)c(C#N)c45)c(C(F)(F)F)cc13)C2 [Compound 34] | < 0.5 µM
C=CC(=O)N1C2CC1CN(c1nc(OC[C@@]34CCCN3C[C@H](F)C4)nc3c(F)c(-c4ccc(F)c5sc(N)c(C#N)c45)c(C(F)(F)F)cc13)C2 [Compound 35] | < 0.5 µM
C=CC(=O)N1C[C@H]2CC[C@@H]1CN2c1nc(OC[C@@]23CCCN2C[C@H](F)C3)nc2c(F)c(-c3ccc(F)c4sc(N)c(C#N)c34)c(C(F)(F)F)cc12 [Compound 36] | 0.5 to 5 µM
C=CC(=O)N1CC[C@@H](N(C)c2nc(OC[C@@H]3C[C@@H](OC)CN3CC)nc3c(F)c(-c4ccc(F)c5sc(N)c(C#N)c45)c(C(F)(F)F)cc23)[C@@H]1C [Compound 101] | < 0.5 µM
C=CC(=O)N1CC[C@@H](N(C)c2nc(OC[C@@H]3C[C@@H](OC)CN3CC)nc3c(F)c(-c4ccc(F)c5sc(N)c(C#N)c45)c(C(F)(F)F)cc23)[C@H]1C [Compound 104] | < 0.5 µM
C=CC(=O)N1CC[C@@H](N(C)c2nc(OC[C@@H]3C[C@@H](F)CN3CC)nc3c(F)c(-c4ccc(F)c5sc(N)c(C#N)c45)c(Cl)cc23)[C@@H]1C [Compound 105] | < 0.5 µM
C=CC(=O)N1CCN(c2nc(OC[C@@]34CCCN3C[C@H](F)C4)nc3c(F)c(-c4ccc(F)c5sc(N)c(C#N)c45)c(C(F)(F)F)cc23)C2CC21 (stereo partly drawn) [Compound 106] | < 0.5 µM
C=CC(=O)N1CC[C@@H](N(C)c2nc(OC[C@@H]3C[C@@H](F)CN3CC)nc3c(F)c(-c4ccc(F)c5sc(N)c(C#N)c45)c(C(F)(F)F)cc23)[C@H]1C [Compound 107] | < 0.5 µM
C=CC(=O)N1C[C@H](N(C)c2nc(OC[C@@]34CCCN3C[C@H](F)C4)nc3c(F)c(-c4ccc(F)c5sc(N)c(C#N)c45)c(C(F)(F)F)cc23)C[C@@H]1C [Compound 108] | < 0.5 µM
C=CC(=O)N1C[C@H](N(C)c2nc(OC[C@@]34CCCN3C[C@H](F)C4)nc3cc(-c4ccc(F)c5sc(N)c(C#N)c45)c(F)cc23)C[C@@H]1C [Compound 109] | < 0.5 µM
C=CC(=O)N1CC[C@@H](N(C)c2nc(OC[C@@]34CCCN3C[C@H](F)C4)nc3cc(-c4nc(N)cc(C)c4C(F)(F)F)c(F)cc23)[C@H]1C [Compound 110] | < 0.5 µM
